Measurements from patent US9896512B2, “Antitumor peptide derived from a complementarity determining region of a humanized monoclonal antibody to NAP12B transporter” (Recepta Biopharma S.A., priority 2010, dated 2018).
Like-named read-outs stand apart in the source and are kept apart here. Blank lines part the entries; values can stand above or below the compound they belong to. Non-standard residues stand in square brackets, D forms with d. Residues, ends and D or L forms follow the SMILES beside them. No end group written: not given here.

How the values were obtained:
[1] = system: B16F10-Nex2 melanoma cells; assay: Cell migration, wound healing assay; type: cell-based, murine; details: peptide 500 μM, 24 hours after wounding
Description: (§1) For the migration studies, 5×10^5 or 10^6 cells were distributed on 6-well plates and let them to adhere for 2 hours at 37° C./5% CO2. The culture medium was changed and the peptide was added at 500 μM overnight. The cell monolayer was “wounded” with a P1000 tip and incubated for 24 hours. Images of untreated cells (control) and peptide treated cells were captured with a JENOPTIK camera. Cell numbers (nuclei) were determined using the Pixcavator software version 5.0.
Viable B16F10-Nex2 cells (5×105)/well were distributed on a 6-well culture plate and incubated overnight at 37° C. in a humidified chamber with 5% CO2. A P1000 tip was used for wounding the cell monolayer and the image was immediately captured (0 hour) using a camera (Jenoptik) with the software Progres 2.8. After 24 hours a new image of the same field was obtained and recorded (24 hours).
Viable B16F10-Nex2 cells (3×10^5)/well were distributed in a 12-well culture plate and incubated for 4 hours at 37° C. in a humidified chamber with 5% CO2. Fresh medium containing RB10 (SEQ ID NO: 9) at different concentrations was added to the wells and incubated again for 4 hours. The monolayer wounding was performed as described above in Example 12, and images obtained accordingly. After 24 hours a new image in the same field was obtained and recorded (24 hours). […] Magnification ×100.

[2] = system: human cervix cancer HeLa cells; assay: Cell migration, wound healing assay; type: cell-based; details: peptide 500 μM, 24 hours
Description: as §1

[3] = system: human cervix cancer SiHa cells; assay: Cell migration, wound healing assay; type: cell-based; details: peptide 500 μM, 24 hours
Description: as §1

[4] = system: human glioblastoma U87 cells; assay: Cell migration, wound healing assay; type: cell-based; details: peptide 500 μM, 24 hours
Description: as §1

[5] = system: B16F10-Nex2 melanoma cells; assay: In vivo protection against lung colonization (metastatic melanoma model); parameters: species or system C57B1/6 mice; details: 250 μg i.p. on days 1, 3, 5, 7, 9, 11; lungs after 22 days
Description: (§2) Details of the in vitro tumor cell growth, cytotoxicity tests, determination of viable cells and in vivo protection experiments with B16F10 cells in a mouse metastatic model are described in Polonelli et al. (PLoS One. 3(6):e2371, 2008) and Dobroff et al. (Translat. Onc., 3: 204-217, 2010).
Peptides RB9 and RB10 along with the apoptotic peptide A4H3, a true microantibody of cytotoxic anti-melanoma mAb (A4) (Dobroff et al., Translat. Onc., 3: 204-217, 2010), were tested for their protective effects against lung colonization by B16F10-Nex2 melanoma cells (2×105) injected intravenously in C57B1/6 mice (6 animals/group). Peptides were intraperitoneally administered (250 μg i.p.) on days 1, 3, 5, 7, 9, 11 after tumor cell challenge. Lungs of peptide-treated animals are shown in FIG. 5 after 22 days of tumor challenge. As noticed, peptide treatment was interrupted 10 days before animal sacrifice.
In vivo protection by peptides RB9 and RB10 (and A4H3 control) against lung colonization by B16F10-Nex2 melanoma cells (2×105) injected intravenously in C57B1/6 mice (6 animals/group) is shown in FIG. 6. The other 5 CDRs of RebMab200 (SEQ ID NOs: 7, 10, 11, 12, 13) were unprotective in vivo. Peptides were administered in the same way as described above, and the number of lung nodules was determined.

[6] = Peptide degradation by human plasma (HPLC / mass spectrum); type: in vitro ADME; details: human plasma, 37° C.
Description: Peptides have variable half lives in the plasma due to the proteolytic activity and the renal filtration, which are relevant aspects in the pharmacokinetics of drug candidates.
To analyze the peptide in HPLC and Mass Spectrum, an aliquot of 200 μL was transferred to a new Eppendorf tube and proteins were precipitated with 20 μL trifluoroacetic acid for 5 minutes at 4° C. After centrifugation for 10 minutes at 14,000 rpm, the supernatant was analyzed in an LC/ESI-MS (Waters).
Regarding assays for determining time-lapse plasma degradation of RB9 peptide, peptide degradation by human plasma was monitored in HPLC and Mass spectra every 30 minutes as described above (FIG. 12). About 50% RB9 was cleaved after 2 hours of incubation at 37° C.

[7] = system: tumor cells; assay: Antitumor activity of RebMab 200 CDR peptides; type: cell-based
Excerpt: as §2
Amidated RebMab 200 CDR H2 (SEQ ID NO: 7) shares up to sixteen (16) identical amino acids with similar H2 fragments from several murine antibodies of various specificities.

[8] = system: tumor cells; assay: Cell adherence assay (detachment with trypsin/EDTA); type: cell-based
Description: At a lower dose, cells would be detached with trypsin/EDTA at rates inversely proportional to the peptide concentration. Conceivably, peptides RB9 and RB10 affected the cytoskeleton dynamics of cells, thus signaling increased cell adhesion.
B16F10-Nex2.1 cells (5×10^3) and U87-MG cells (1×10^4) were cultivated in 96-well plates and incubated with different concentrations of RB9 (SEQ ID NO: 8) and RB10 (SEQ ID NO: 9) from 0.01 to 1 mM (i.e., 0.01, 0.05, 0.1, 0.25, 0.7, 0.8 and 1 mM of RB9 and RB10 for B16F10-Nex 2.1 cells; and 0.25, 0.5, 0.75 and 1 mM of RB9 and RB10 for U87-MG cells). After 18 hours incubation, viable cells detached with trypsin/EDTA were counted using Trypan blue exclusion staining. All assays were performed in triplicate in two independent experiments.
SKBR3 cells (1×10^4) were cultivated in 96-well plates and incubated with RB9 (SEQ ID NO: 8) and RB10 (SEQ ID NO: 9). After 18 hours incubation, viable cells detached with trypsin/EDTA were counted using Trypan blue exclusion staining. Assays were performed in triplicate in two independent experiments. The A2058 human melanoma cells (1×10^4) were incubated for 4 hours at 37° C. in a humidified chamber with 5% CO2. Fresh media containing different peptide concentrations of RB9 and RB10 ranging from 0 to 1 mM (i.e., 0, 0.25, 0.5 and 1 mM) was added to the wells and incubated for 24 hours. The media was then aspirated, cells were detached with 30 μl/well of trypsin-EDTA for five minutes at 37° C. and viable cells were counted in a Neubauer chamber using Trypan blue. As shown in FIGS. 2A-2D, 50% of cells were trypsin-EDTA resistant at 630 and 610 μM RB9 and RB10, respectively.

[9] = system: melanoma B16F10-Nex2 cells; assay: Alanine scanning series cell adhesion assay (MTT after trypsin-EDTA); type: cell-based, murine; details: 1 mM peptide, 24 hours
Description: The peptide RB10 (SEQ ID NO: 9) was engineered to replace each amino acid by alanine using Ala-scan methodology, and thus help evaluate the role of each amino acid on biological effect, specifically on the hyper-adherence observed with 1 mM peptide.
For this purpose, viable melanoma B16F10-Nex2 cells (1×10^4)/well were distributed on a 96-well culture plate and incubated for 4 hours. Fresh media containing 1 mM of the alanine-scanning series for RB10 was added and incubated for 24 hours. Treated cells were detached with 30 μl/well of trypsin-EDTA for five minutes at 37° C. and gently washed with PBS. Cells were incubated for 4 hours with 0.5 mg/mL of MTT [3-(4,5-Dimethylthiazol-2-yl)-2,5-diphenyltetrazolium bromide] in fresh media and the formazan crystals were solubilized adding 1 volume of a 10% SDS solution overnight. Intensity was measured using a plate reader at 570 nm. […] The 100% value for each peptide represented the treated cells that had not been trypsinized.

Compound: C[C@H](NC(=O)[C@H](CCCNC(=N)N)NC(=O)[C@H](C)NC(=O)[C@@H](NC(=O)[C@H](CCC(=O)O)NC(=O)CNC(=O)[C@H](CCCNC(=N)N)NC(=O)[C@@H](C)NC(=O)[C@@H](N)CS)[C@@H](C)O)C(=O)N[C@H](C(=O)N[C@@H](Cc1ccccc1)C(=O)N[C@@H](C)C(=O)N[C@@H](Cc1ccc(O)cc1)C(=O)N[C@@H](Cc1c[nH]c2ccccc12)C(=O)NCC(=O)N[C@@H](CCC(N)=O)C(=O)NCC(N)=O)[C@@H](C)O [RB10 M3, C(dA)RGETARATFAYWGQG-NH2] (H-C[dA]RGETARATFAYWGQG-NH2; N-terminus assumed)
inhibition of cell migration (words) [1]: complete inhibition | inhibition of cell migration (words) ([1]; listed as RB10M3): Total inhibition | inhibition of cell migration [2]: almost complete inhibition | inhibition of cell migration ([2]; listed as RB10M3): complete or almost complete inhibition | inhibition of cell migration [3]: almost complete inhibition | inhibition of cell migration ([3]; listed as RB10M3): complete or almost complete inhibition | inhibition of cell migration [4]: partial inhibition | inhibition of cell migration ([4]; listed as RB10M3): partial migration inhibition

half-life [6]: < 1 h
Compound: AIYPGNGDTSYKQKFRG-NH2 [RB8, AIYPGNGDTSYKQKFRG-NH2]
protection against lung colonization (lung nodules) [5]: unprotective | antitumor activity ([7]; listed as RBB): no antitumor activity | antitumor activity ([7]; listed as SEQ ID NO: 7): no antitumor effect

Compound: CARGETARATFAYWGQG (Sequence of CDR H3 from RebMab 200 (huMX35), obtainable by a known method) [RB10a]
adherence at peptide concentration of 1 mM (not suspended by trypsin/EDTA) ([8]; 1 mM peptide): hyper-adherence | adherence of tumor cells to the substrate ([8]; 96-well plates, RPMI 10% FCS, seen in B16F10-Nex2.1, U87MG, A5028 melanoma, SKBR3, SiHa, HCT cells): dose dependent increase of adherence | trypsin/EDTA-resistant cell adherence [9]: high trypsin/EDTA-resistant cell adherence | antitumor activity [7]: antitumor effects
